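Five compound concentrations were applied to cells in 96-well plates for 48 hours; endpoints were derived by simple linear interpolation of the resulting dose-response curve. GI50: concentration for 50% inhibition of growth. TGI marks complete inhibition of growth.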
Columns and labels:
Test in all cases: inhibition of tumour cell growth, NCI panel, 48 h
NCI-H226 lung = system: NCI-H226 lung
BT-549 breast = system: BT-549 breast
HCC-2998 colon = system: HCC-2998 colon
NCI-H23 lung = system: NCI-H23 lung
SK-OV-3 ovarian = system: SK-OV-3 ovarian
K-562 leukemia = system: K-562 leukemia
ACHN renal = system: ACHN renal
SK-MEL-28 melanoma = system: SK-MEL-28 melanoma
A498 renal = system: A498 renal
SF-539 CNS = system: SF-539 CNS

Row | SMILES | GI50 (NCI-H226 lung) [µM] | TGI (NCI-H226 lung) [µM] | GI50 (BT-549 breast) [µM] | TGI (BT-549 breast) [µM] | GI50 (HCC-2998 colon) [µM] | TGI (HCC-2998 colon) [µM] | GI50 (NCI-H23 lung) [µM] | TGI (NCI-H23 lung) [µM] | GI50 (SK-OV-3 ovarian) [µM] | TGI (SK-OV-3 ovarian) [µM] | GI50 (K-562 leukemia) [µM] | TGI (K-562 leukemia) [µM] | GI50 (ACHN renal) [µM] | TGI (ACHN renal) [µM] | GI50 (SK-MEL-28 melanoma) [µM] | TGI (SK-MEL-28 melanoma) [µM] | GI50 (A498 renal) [µM] | TGI (A498 renal) [µM] | GI50 (SF-539 CNS) [µM] | TGI (SF-539 CNS) [µM]
1 | NS(=O)(=O)c1ccc(C2C3=C(CCCC3=O)OC3=C2C(=O)c2ccccc2C3=O)cc1 (configuration not stated) | 1.75 | 3.36 | 1.12 | 2.35 | 1.47 | 3.11 | 0.198 | 1.15 | 1.99 | 3.76 | 0.46 | 2.35 | 1.24 | 2.53 | 1.42 | 2.92 | 1.28 | 2.57 | 0.277 | 0.761
2 | OCCCCC#Cc1ccccc1C#Cc1ccccc1F | 24 | 49.8 | 21.7 | 52.7 | 17.8 | 33 | 20.2 | 43.1 | 23.8 | 58.4 | 23.2 | 47.2 | 25.5 | 53.6 | 27.3 | 72.9 | 26.9 | 82.5 | 22 | 48.4
3 | COc1ccc(Nc2ccnc(NCCNc3ccnc4cc(Cl)ccc34)n2)cc1 | 7.29 | 21.1 | 1.86 | 7.01 | 1.5 | 3.48 | 2.75 | 14.9 | 7.21 | 20.5 | 1.32 | 4.75 | 2.27 | 6.06 | 1.65 | 3.35 | 0.874 | 4.92 | 1.59 | 3.2
4 | O=C1c2ccccc2-c2c1c1ccc([N+](=O)[O-])cc1c(=O)n2CCNCCCNCCn1c2c(c3ccc([N+](=O)[O-])cc3c1=O)C(=O)c1ccccc1-2 | 0.125 | 3.16 | 2.57 | 50 | 0.992 | 13.3 | 0.0682 | 6.97 | 6.75 | 22.9 | 0.0492 | 28.2 | 0.338 | 24.5 | 1.29 | 10.2 | 1.82 | 19.1 | 0.872 | 6.04
5 | O=S1(=O)N(Cc2ccccc2)[C@@H](Cc2ccccc2)C2O[C@H]2[C@H](Cc2ccccc2)N1Cc1ccccc1 (some centres not stated) | > 7.5 | > 7.5 | 4.09 | > 7.5 | > 7.5 | > 7.5 | 3.47 | > 7.5 | > 7.5 | > 7.5 | 3.34 | > 7.5 | 5.88 | > 7.5 | > 7.5 | > 7.5 | > 7.5 | > 7.5 | > 7.5 | > 7.5
6 | CN(C)C(=S)NN=C(c1ccccn1)c1ccccn1 | 0.0445 | 12.7 | 0.074 | 15.4 | 0.0327 | 21.2 | < 0.01 | 16.3 | 0.0487 | 16.7 |  | > 100 | < 0.0108 | 10.7 | 0.131 | 18.2 | 0.191 | 12.1 | 0.0425 | 4.64
7 | CNc1nc(C)c(-c2nc(Nc3cccc(S(N)(=O)=O)c3)ncc2F)s1 | 0.0219 | 3.54 | 0.0228 | 0.0753 | 0.0408 | 2.48 | 0.0432 | 0.171 | 0.0925 | 12.4 | 0.0668 | 24.4 | 0.0266 | 11.7 | 0.0319 | 0.278 | < 0.0168 | < 0.0308 | 0.0233 | 0.0664
8 | CCN(CC)c1ccc(N=C2C=C(C(=O)Nc3ccc(S(C)(=O)=O)cc3)C(=O)c3ccccc32)c(C)c1 | > 100 | > 100 | 0.831 | > 100 | > 100 | > 100 | 82 | > 100 | 9.45 | > 100 | 15.8 | > 100 | > 100 | > 100 | > 100 | > 100 | > 100 | > 100 | 1.07 | > 100
9 | CCc1ccc(-c2ccc(=O)n(-c3ccc(S(N)(=O)=O)cc3)n2)cc1 | 21.1 | > 100 | 0.916 | 21.7 |  | > 100 | 11.9 | > 100 | 4.44 | > 100 | 0.297 | > 46.6 | > 32.4 | > 100 | 6.73 | > 100 | 8.86 | > 61.4 | 3.15 | 32.1
10 | C[C@@H]1COCCN1c1nc(-c2cnc(N)cc2C(F)F)nc(N2[C@H](C)COC[C@@H]2C)n1 | 0.2 | 11.2 | 0.144 | 1.75 | 0.31 | 12.2 | 0.267 | 15.7 | 0.166 | 1.34 | 0.379 | 17.4 | 0.265 | 11.8 | 0.255 | 11.7 | 0.0507 | 0.345 | 0.264 | 6.66
11 | OCc1cccc(-c2ccc3ncc(-c4nc(NC5CC5)ncc4F)n3c2)c1 | 0.301 | 1.47 | 0.23 | 0.811 | 0.333 | 2.17 | 0.281 | 1.19 | 0.448 | 7.06 | 0.434 | > 100 | 0.134 | 1.24 | 0.29 | 0.998 | 0.152 | 0.367 | 0.162 | 0.454
12 | O=C(Nc1c(Cl)cc([N+](=O)[O-])cc1Cl)C(=O)C1C(=O)NC(=S)NC1=O |  | > 100 |  | > 100 |  | > 100 |  | > 100 |  | > 100 |  | > 100 |  | > 100 |  | > 100 |  | > 100 |  | > 100
13 | C=C1C(=O)O[C@H]2[C@H]1CC/C(CNC(=O)/C=C/c1cccc(OC)c1)=C\CC[C@@]1(C)O[C@@H]21 | 1.82 | 4.84 | 1.57 | 3.66 | 1.83 | 3.31 | 1.67 | 3.35 | 11.2 | 23.3 | 1.31 | 18.6 | 1.14 | 2.67 | 1.74 | 4.23 | 1.82 | 5.85 | 1.27 | 2.98
14 | COc1cc([C@@H]2c3cc4c(cc3C(Br)[C@H]3COC(=O)[C@H]23)OCO4)cc(OC)c1OC (some centres not stated) | 0.721 | > 100 | 0.254 |  | 0.255 | 0.694 | 0.321 | > 100 | 0.312 | > 100 | 0.185 | > 100 | 0.241 | > 100 | 53.5 | > 100 | 0.0257 | 0.177 | 0.185 | 0.598
15 | CCCCCCOc1ccc(/C=N/NC(N)=S)cc1 | 3.65 | 16.5 | 2.79 | 9.15 | 6.45 | > 100 | 4.3 | > 100 | 27.2 | > 100 | 1.72 | > 26.8 | 5.89 | > 100 | 10.9 | 38.4 | 16.8 | 32.3 | 2.38 | 6.06
16 | N#Cc1cccc(C(=O)c2cnn(-c3ccc(F)cc3)c2N)c1 | > 25 | > 25 | > 25 | > 25 | > 25 | > 25 | > 25 | > 25 | > 25 | > 25 | > 25 | > 25 | > 25 | > 25 | > 25 | > 25 | > 25 | > 25 | > 25 | > 25
17 | COc1ccc(C(O)c2cc3c(N)c(C(=O)Nc4cccc(Cl)c4C)sc3nc2C)cc1 (configuration not stated) | 1.04 | 3.15 | 0.888 | 1.77 | 0.444 | 1.16 | 0.926 | 1.8 | 0.988 | 2.09 | 0.198 | 1.45 | 0.877 | 1.63 | 0.854 | 1.58 | 0.761 | 1.63 | 0.818 | 1.54
18 | Cc1cc(=O)c2cc(N=Cc3ccc([N+](=O)[O-])o3)ccc2o1 |  | > 100 |  | > 100 |  | > 100 |  | > 100 |  | > 100 |  | > 100 |  | > 100 |  | > 100 |  | > 100 |  | > 100
19 | Cn1c(=O)c(Oc2cccc(F)c2)cc2cnc(NC3CCOCC3)nc21 | > 25 | > 25 | > 25 | > 25 | > 25 | > 25 | > 25 | > 25 | > 25 | > 25 | > 25 | > 25 | > 25 | > 25 | > 25 | > 25 | 8.11 | > 25 | > 25 | > 25
20 | O=c1[nH]cnc2c1nnn2C1OC(CO)C(O)C1O (configuration not stated) | 4.88 | > 100 | 7.77 | > 100 | 2.65 | 24.5 | 4.25 | > 100 | 0.375 | > 100 | 3.97 | > 100 | 1.04 | > 100 | 16.7 | > 100 | 5 | > 100 | 4.06 | 63.8
21 | N#Cc1c2ccccc2c2n1-c1ccccc1OC(c1ccccc1)C2=O (configuration not stated) | 3.09 | 11.7 | 2.84 | 7.76 | 15.5 | 85.8 | 2.95 | 15 | 6.03 | 48.6 | 3.19 | 13.9 | 3.73 | > 100 | 8.67 | 27.5 | 1.84 | 6.89 | 4.29 | 16.8
22 | Cc1ccccc1S(=O)(=O)N1[C@H](c2ccc(Cl)cc2)C(C(=O)N[C@@H](Cc2ccccc2)C(N)=O)=C[C@@H]1C(C)(C)C | 7.05 | 16.1 | 8.63 | 20.9 | 6.48 | 13.5 | 8.05 | 17.6 | 8.5 | 21.7 | 7.1 | 35.4 | 2.95 | 9.83 | 5.34 | 12 | 7.3 | 14.4 | 6.61 | 13.4

Reference: PubChem BioAssay (NCI)
